One data set addresses T1, Activated human p38α (Homo sapiens, UniProt Q16539).
T1 construct: purchased Upstate Biotechnology Inc. 14-251
As to the kind of experiment: p38MAP kinase inhibition test. The format is biochemical. Conditions: at a concentration of 1 μmol/L; substrate myelin basic protein, ATP 20 μmol/L, [γ-32P]ATP; read-out: enzyme inhibitory activity. The gist of the method: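 Radiometric kinase assay with myelin basic protein (20 μg/assay) as substrate, 20 μmol/L ATP plus [γ-32P]ATP, MOPS pH 7.2 with MgCl2 18.75 mmol/L. Reaction run 15 min at 30° C., stopped with phosphoric acid; 32P-MBP captured on phosphocellulose and counted by scintillation.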

T1 sequence (Q16539 whole entry): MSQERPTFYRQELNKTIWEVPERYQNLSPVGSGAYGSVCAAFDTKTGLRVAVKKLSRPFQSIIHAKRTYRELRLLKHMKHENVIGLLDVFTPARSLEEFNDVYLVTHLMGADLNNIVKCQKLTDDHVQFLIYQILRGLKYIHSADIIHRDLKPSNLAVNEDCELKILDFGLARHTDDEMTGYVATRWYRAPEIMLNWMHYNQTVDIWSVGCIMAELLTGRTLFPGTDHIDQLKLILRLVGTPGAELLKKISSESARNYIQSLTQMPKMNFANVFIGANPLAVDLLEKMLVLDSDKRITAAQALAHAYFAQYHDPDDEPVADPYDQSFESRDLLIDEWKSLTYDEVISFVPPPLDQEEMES

The molecule `CS(=O)(=O)N1CCC(Nc2ncc3cc(-c4ccccc4Cl)c(O)cc3n2)CC1` [Compound 156, 6-(2-Chlorophenyl)-7-hydroxy-2-[1-(methylsulfonyl)piperidin-4-ylamino]quinazoline] showed a melting point of 268 to 271 °C. The inhibition at 1 µM on Activated human p38α was at least 50%.

As for `CCS(=O)(=O)N1CCC(Nc2ncc3cc(-c4ccccc4Cl)c(O)cc3n2)CC1` [Compound 161, 6-(2-Chlorophenyl)-2-[1-(ethylsulfonyl)piperidin-4-ylamino]-7-hydroxyquinazoline], the melting point lay in the range of 251 to 253 °C. Moreover, the inhibition at 1 µM at Activated human p38α was at least 50%.

For `CC[C@H](C)Nc1ncc2cc(-c3ccccc3Cl)c(O)cc2n1` [Compound 163, (S)-2-(sec-Butylamino)-6-(2-chlorophenyl)-7-hydroxyquinazoline], the melting point was 173 to 175 °C. Besides, at Activated human p38α, the inhibition at 1 µM was at least 50%.

In turn, `CC[C@H](C)Nc1ncc2cc(-c3ccccc3C)c(O)cc2n1` [Compound 169, (S)-2-(sec-Butylamino)-7-hydroxy-6-(2-methylphenyl)quinazoline] showed a melting point of 165 °C. Besides, the inhibition at 1 µM on Activated human p38α is at least 50%.

Take `CCC(CC)Nc1ncc2cc(-c3ccccc3C)c(O)cc2n1` [Compound 170, 2-(3-Pentylamino)-7-hydroxy-6-(2-methylphenyl)quinazoline]: the melting point was 198 to 200 °C. The inhibition at 1 µM at Activated human p38α is at least 50%.

For the molecule `Cc1ccccc1-c1cc2cnc(NC3CCCCC3)nc2cc1O` [Compound 171, 2-(Cyclohexylamino)-7-hydroxy-6-(2-methylphenyl)quinazoline], the melting point amounted to 158 °C. Moreover, the inhibition at 1 µM at Activated human p38α is at least 50%.

For `Cc1ccccc1-c1cc2cnc(Nc3c(C)cccc3C)nc2cc1O` [Compound 175, 2-(2,6-Dimethylanilino)-7-hydroxy-6-(2-methylphenyl)quinazoline], the melting point is 220 to 222 °C. At Activated human p38α, the inhibition at 1 µM is at least 50%.

For `Cc1ccccc1-c1cc2cnc(Nc3c(Cl)cccc3Cl)nc2cc1O` [Compound 176, 2-(2,6-Dichloroanilino)-7-hydroxy-6-(2-methylphenyl)quinazoline], the melting point lay in the range of 226 to 227 °C. For the same molecule, the inhibition at 1 µM at Activated human p38α is at least 50%.

Molecule `Cc1ccccc1-c1cc2cnc(Nc3ccccc3)nc2cc1O` [Compound 178, 2-Anilino-7-hydroxy-6-(2-methylphenyl)quinazoline] displayed a melting point of 234 to 236 °C. For the same molecule, at Activated human p38α, the inhibition at 1 µM was at least 50%.

Molecule `CCc1cccc(C)c1Nc1ncc2cc(-c3ccccc3C)c(O)cc2n1` [Compound 180, 2-(2-Ethyl-6-methylanilino)-7-hydroxy-6-(2-methylphenyl)quinazoline] registered a melting point of 130 to 133 °C. In addition, on Activated human p38α, the inhibition at 1 µM was at least 50%.

On to `COc1cc2nc(NC(C)C)ncc2cc1-c1cc(C(=O)NC2CC2)ccc1C` [Compound 236, 6-(5-Cyclopropylcarbamoyl-2-methylphenyl)-2-isopropylamino-7-methoxyquinazoline], for which the melting point fell in the range of 122 to 125 °C. On Activated human p38α, the inhibition at 1 µM is at least 50%.

Molecule `CS(=O)(=O)N1CCC(Nc2ncc3cc(-c4cccc(O)c4)c(O)cc3n2)CC1` [Compound 247, 7-Hydroxy-6-(3-hydroxyphenyl)-2-[1-(methylsulfonyl)piperidin-4-ylamino]quinazoline] returned a melting point of 285 to 290 °C. Moreover, at Activated human p38α, the inhibition at 1 µM was at least 50%.

`CC(C)Nc1ncc2cc(-c3cccc(NC(=O)c4ccnc(N5CCOCC5)c4)c3)c(O)cc2n1` [Compound 290, 7-Hydroxy-2-isopropylamino-6-{3-[(2-morpholinopyridin-4-yl)carbonylamino]phenyl}quinazoline] returned a melting point of 258 °C. Moreover, on Activated human p38α, the inhibition at 1 µM was at least 50%.

The molecule `CC(C)Nc1ncc2cc(-c3cccc(NC(=O)c4cccc(N(C)C)c4)c3)c(O)cc2n1` [Compound 291, 6-{3-[(3-Dimethylaminophenyl)carbonylamino]phenyl}-7-hydroxy-2-(isopropylamino)quinazoline] gave a melting point of 150 °C. The inhibition at 1 µM at Activated human p38α was at least 50%.

`CC(C)Nc1ncc2cc(-c3cccc(NC(=O)C4(C)CC4)c3)c(O)cc2n1` [Compound 299, 7-Hydroxy-2-isopropylamino-6-{3-[(1-methylcyclopropyl)carbonylamino]phenyl}quinazoline]: the inhibition at 1 µM on Activated human p38α was at least 50%.

Molecule `Cc1cc(C)c(Nc2ncc3cc(-c4ccccc4C)c(O)cc3n2)c(C)c1` [Compound 300, 7-Hydroxy-6-(2-methylphenyl)-2-(2,4,6-trimethylanilino)quinazoline] registered a melting point of 142 °C. For the same molecule, the inhibition at 1 µM on Activated human p38α was at least 50%.

Molecule `Cc1cccc(C)c1Nc1ncc2cc(-c3cccc(NC(=O)c4ccnc(N5CCOCC5)c4)c3)c(O)cc2n1` [Compound 312, 2-(2,6-Dimethylanilino)-7-hydroxy-6-{3-[(2-morpholinopyridin-4-yl)carbonylamino]phenyl}quinazoline] yielded a melting point of 185 °C. Besides, on Activated human p38α, the inhibition at 1 µM is at least 50%.

With `Cc1cccc(C)c1Nc1ncc2cc(-c3cccc(NC(=O)c4cccc(N(C)C)c4)c3)c(O)cc2n1` [Compound 314, 6-{3-[(3-Dimethylaminophenyl)carbonylamino]phenyl}-2-(2,6-dimethylanilino)-7-hydroxyquinazoline], the inhibition at 1 µM on Activated human p38α is at least 50%.

The molecule `Cc1ccc(C(=O)NC2CC2)cc1-c1cc2cnc(Nc3c(C)cccc3C)nc2cc1O` [Compound 317, 6-(5-Cyclopropylcarbamoyl-2-methylphenyl)-2-(2,6-dimethylanilino)-7-hydroxyquinazoline] registered a melting point of 210 to 213 °C. On Activated human p38α, the inhibition at 1 µM is at least 50%.

In the case of `Cc1ccc(C(=O)NC2CC2)cc1-c1cc2cnc(Nc3c(Cl)cccc3Cl)nc2cc1O` [Compound 319, 6-(5-Cyclopropylcarbamoyl-2-methylphenyl)-2-(2,6-dichloroanilino)-7-hydroxyquinazoline], the melting point is 190 to 193 °C. Besides, the inhibition at 1 µM at Activated human p38α is at least 50%.

On to `Cc1ccc(C(=O)NC2CC2)cc1-c1cc2cnc(NC(C)C)nc2cc1O` [Compound 322, 6-(5-Cyclopropylcarbamoyl-2-methylphenyl)-7-hydroxy-2-(isopropylamino)quinazoline], for which the melting point was 156 to 160 °C. The inhibition at 1 µM at Activated human p38α is at least 50%.

Regarding `CC(C)Nc1ncc2cc(-c3cccc4ccccc34)c(O)cc2n1` [Compound 326, 7-Hydroxy-2-isopropylamino-6-(naphthalen-1-yl)quinazoline], at Activated human p38α, the inhibition at 1 µM was at least 50%.

For the molecule `Cc1ccc(-n2nc(C(C)(C)C)cc2C(=O)Nc2cccc(-c3cc4cnc(NC(C)C)nc4cc3O)c2)cc1` [Compound 359, 6-{3-[5-tert-Butyl-2-(4-methylphenyl)-2H-pyrazol-3-ylcarbonylamino]phenyl}-7-hydroxy-2-(isopropylamino)quinazoline], the inhibition at 1 µM on Activated human p38α is at least 50%.

The molecule `CC(C)Nc1ncc2cc(-c3cccc(NC(=O)c4cc(F)cc(N5CCCCC5)c4)c3)c(O)cc2n1` [Compound 370, 6-{3-[3-Fluoro-5-(piperidino)benzoylamino]phenyl}-7-hydroxy-2-(isopropylamino)quinazoline] displayed a melting point of 215 to 217 °C.

`CC(C)Nc1ncc2cc(-c3cccc(C(=O)Nc4ccnc(N5CCCC5)c4)c3)c(O)cc2n1` [Compound 372, 7-Hydroxy-2-isopropylamino-6-{3-[2-(pyrrolidin-1-yl)pyridin-4-ylcarbamoyl]phenyl}quinazoline] returned a melting point of 275 to 279 °C.

In turn, `CC(C)Nc1ncc2cc(-c3cccc(NC(=O)c4ccnc(N5CCN(C)CC5)c4)c3)c(O)cc2n1` [Compound 374, 7-Hydroxy-2-isopropylamino-6-{3-[2-(4-methylpiperazin-1-yl)pyridin-4-ylcarbonylamino]phenyl}quinazoline] registered a melting point of 178 °C.

Molecule `CC(C)Nc1ncc2cc(-c3cccc(NC(=O)c4cccc(N5CCCC5)c4)c3)c(O)cc2n1` [Compound 376, 7-Hydroxy-2-isopropylamino-6-{3-[3-(pyrrolidin-1-yl)benzoylamino]phenyl}quinazoline] had a melting point of 235 to 236 °C.

The molecule `Cc1ccc(C(N)=O)cc1-c1cc2cnc(NC(C)C)nc2cc1O` [Compound 378, 6-(5-Carbamoyl-2-methylphenyl)-7-hydroxy-2-(isopropylamino)quinazoline] had a melting point of 235 to 236 °C.

Turning to `CCONC(=O)c1ccc(C)c(-c2cc3cnc(NC(C)C)nc3cc2O)c1` [Compound 380, 6-(5-Ethoxycarbamoyl-2-methylphenyl)-7-hydroxy-2-(isopropylamino)quinazoline], the melting point worked out at 157 °C.

`CCC(CC)Nc1ncc2cc(-c3cccc(NC(=O)c4ccnc(N5CCCC5)c4)c3)c(O)cc2n1` [Compound 382, 2-(3-Pentylamino)-7-hydroxy-6-{3-[2-(pyrrolidin-1-yl)pyridin-4-ylcarbonylamino]phenyl}quinazoline] displayed a melting point of 194 °C.

Molecule `CC[C@H](C)Nc1ncc2cc(-c3cccc(NC(=O)c4ccnc(N5CCCC5)c4)c3)c(O)cc2n1` [Compound 384, (S)-2-(sec-Butylamino)-7-hydroxy-6-{3-[2-(pyrrolidin-1-yl)pyridin-4-ylcarbonylamino]phenyl}quinazoline] displayed a melting point of 165 to 168 °C.

Turning to `CC(C)Nc1ncc2cc(-c3cccc(NC(=O)c4cccc(N5CCCCC5)c4)c3)c(O)cc2n1` [Compound 386, 7-Hydroxy-2-isopropylamino-6-{3-[3-(piperidino)benzoylamino]phenyl}quinazoline], the melting point was 230 °C.

On to `Cc1cc(F)ccc1-c1cc(C(=O)Nc2cccc(-c3cc4cnc(NC(C)C)nc4cc3O)c2)ccn1` [Compound 388, 6-{3-[2-(4-Fluoro-2-methylphenyl)pyridin-4-ylcarbonylamino]phenyl}-7-hydroxy-2-(isopropylamino)quinazoline], for which the melting point lay in the range of 224 to 226 °C.

The record behind these values is patent US7906522B2, “2-aminoquinazoline derivatives” (Kyowa Hakko Kirin Co., Ltd, priority 2005, dated 2011).
